Data taken from PMC7935272 (PLoS Pathogens, 2021).

Assays:
MeV L = target: T1, MeV L (Measles virus, UniProt P12576); assay: MeV minigenome dose-response assay, L WT; format: cell-based; details: 40 h, ERDRP-0519 0.005 µM; L WT; Figure 1D; read-out: minigenome activity, individual repeat
T1 construct: expressed in transfected cells; host or cells: BSR-T7/5

MeV L1708 = MeV L1708 (Measles virus, UniProt Q9WMB3); assay: Biolayer interferometry, MeV L1708 WT; format: binding; details: for BLI sensorgram signal: time r4=0 s, r5=0.2 s, r6=0.4 s, r7=0.6 s; for S5 E BLI response versus compound conc. / S5 F BLI response versus compound conc.: L1708 wt; for S5 B BLI sensorgram response / S5 C BLI sensorgram response: MeV L1708 WT
MeV L1708, sequence (Q9WMB3 1-1708): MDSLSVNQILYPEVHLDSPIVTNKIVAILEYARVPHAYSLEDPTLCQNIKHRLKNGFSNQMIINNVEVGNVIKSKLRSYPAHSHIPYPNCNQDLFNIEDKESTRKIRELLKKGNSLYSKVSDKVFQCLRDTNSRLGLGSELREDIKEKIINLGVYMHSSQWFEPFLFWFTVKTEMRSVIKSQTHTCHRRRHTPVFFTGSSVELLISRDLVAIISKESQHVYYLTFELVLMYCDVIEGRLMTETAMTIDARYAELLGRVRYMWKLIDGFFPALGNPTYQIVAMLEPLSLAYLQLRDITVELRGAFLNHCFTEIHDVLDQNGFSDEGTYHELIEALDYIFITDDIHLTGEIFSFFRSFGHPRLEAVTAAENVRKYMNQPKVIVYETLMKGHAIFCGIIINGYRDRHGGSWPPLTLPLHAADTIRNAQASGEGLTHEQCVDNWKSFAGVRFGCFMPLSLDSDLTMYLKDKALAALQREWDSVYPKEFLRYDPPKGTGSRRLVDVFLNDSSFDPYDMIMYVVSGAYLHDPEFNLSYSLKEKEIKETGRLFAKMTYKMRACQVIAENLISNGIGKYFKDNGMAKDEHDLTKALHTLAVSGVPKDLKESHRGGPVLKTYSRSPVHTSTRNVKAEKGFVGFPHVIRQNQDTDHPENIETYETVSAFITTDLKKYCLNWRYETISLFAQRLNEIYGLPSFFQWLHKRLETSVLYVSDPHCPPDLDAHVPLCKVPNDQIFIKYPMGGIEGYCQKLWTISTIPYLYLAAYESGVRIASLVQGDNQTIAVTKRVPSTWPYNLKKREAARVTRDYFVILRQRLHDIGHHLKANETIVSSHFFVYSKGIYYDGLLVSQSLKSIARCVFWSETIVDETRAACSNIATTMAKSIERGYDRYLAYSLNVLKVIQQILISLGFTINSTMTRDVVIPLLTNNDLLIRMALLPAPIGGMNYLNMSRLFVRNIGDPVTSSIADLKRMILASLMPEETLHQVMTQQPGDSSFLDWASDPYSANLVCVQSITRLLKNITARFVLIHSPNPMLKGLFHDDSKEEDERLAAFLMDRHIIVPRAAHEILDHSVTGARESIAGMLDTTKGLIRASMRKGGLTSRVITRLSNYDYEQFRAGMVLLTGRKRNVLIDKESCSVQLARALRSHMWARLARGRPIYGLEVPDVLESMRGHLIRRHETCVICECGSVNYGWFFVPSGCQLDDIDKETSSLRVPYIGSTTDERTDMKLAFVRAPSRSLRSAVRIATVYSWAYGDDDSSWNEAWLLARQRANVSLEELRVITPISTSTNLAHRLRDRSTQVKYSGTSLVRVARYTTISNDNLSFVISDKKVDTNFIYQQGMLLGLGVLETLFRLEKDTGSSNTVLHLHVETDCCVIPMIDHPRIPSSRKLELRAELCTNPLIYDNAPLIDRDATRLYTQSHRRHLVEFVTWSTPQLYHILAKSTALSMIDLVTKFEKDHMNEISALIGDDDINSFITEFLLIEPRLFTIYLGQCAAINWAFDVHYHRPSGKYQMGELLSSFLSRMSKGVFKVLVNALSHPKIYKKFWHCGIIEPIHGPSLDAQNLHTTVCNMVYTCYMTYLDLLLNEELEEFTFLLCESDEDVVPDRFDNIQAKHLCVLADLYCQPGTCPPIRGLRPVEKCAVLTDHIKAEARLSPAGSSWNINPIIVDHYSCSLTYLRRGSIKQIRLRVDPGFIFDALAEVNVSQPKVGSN
MeV L1708, sequence (Q9WMB4 whole entry partner): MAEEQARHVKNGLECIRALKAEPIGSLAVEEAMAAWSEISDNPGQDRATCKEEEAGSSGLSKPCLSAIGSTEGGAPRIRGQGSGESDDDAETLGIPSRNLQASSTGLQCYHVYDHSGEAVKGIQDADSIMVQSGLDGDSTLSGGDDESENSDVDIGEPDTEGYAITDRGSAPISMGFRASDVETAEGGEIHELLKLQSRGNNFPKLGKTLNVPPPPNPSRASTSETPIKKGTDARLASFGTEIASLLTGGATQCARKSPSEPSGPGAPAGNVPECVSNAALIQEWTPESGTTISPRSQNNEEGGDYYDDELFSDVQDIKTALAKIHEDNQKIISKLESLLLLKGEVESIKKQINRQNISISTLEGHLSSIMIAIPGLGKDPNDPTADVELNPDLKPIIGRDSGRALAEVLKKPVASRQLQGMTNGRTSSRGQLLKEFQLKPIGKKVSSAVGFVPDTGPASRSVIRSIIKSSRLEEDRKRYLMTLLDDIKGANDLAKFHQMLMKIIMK

T1 sequence (P03422 whole entry): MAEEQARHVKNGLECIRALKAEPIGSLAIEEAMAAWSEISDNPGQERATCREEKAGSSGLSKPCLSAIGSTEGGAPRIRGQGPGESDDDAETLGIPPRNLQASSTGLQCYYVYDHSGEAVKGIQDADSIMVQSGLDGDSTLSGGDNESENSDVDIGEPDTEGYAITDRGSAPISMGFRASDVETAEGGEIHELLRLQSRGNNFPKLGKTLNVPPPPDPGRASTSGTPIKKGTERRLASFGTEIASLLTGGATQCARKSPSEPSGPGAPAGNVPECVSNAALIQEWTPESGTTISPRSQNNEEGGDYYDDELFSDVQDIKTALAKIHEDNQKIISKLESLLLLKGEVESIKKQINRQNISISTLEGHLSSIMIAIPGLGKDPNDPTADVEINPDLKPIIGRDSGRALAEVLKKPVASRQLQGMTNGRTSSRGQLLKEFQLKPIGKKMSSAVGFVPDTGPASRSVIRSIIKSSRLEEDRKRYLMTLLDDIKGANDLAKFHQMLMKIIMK
T1 sequence (P12576 whole entry): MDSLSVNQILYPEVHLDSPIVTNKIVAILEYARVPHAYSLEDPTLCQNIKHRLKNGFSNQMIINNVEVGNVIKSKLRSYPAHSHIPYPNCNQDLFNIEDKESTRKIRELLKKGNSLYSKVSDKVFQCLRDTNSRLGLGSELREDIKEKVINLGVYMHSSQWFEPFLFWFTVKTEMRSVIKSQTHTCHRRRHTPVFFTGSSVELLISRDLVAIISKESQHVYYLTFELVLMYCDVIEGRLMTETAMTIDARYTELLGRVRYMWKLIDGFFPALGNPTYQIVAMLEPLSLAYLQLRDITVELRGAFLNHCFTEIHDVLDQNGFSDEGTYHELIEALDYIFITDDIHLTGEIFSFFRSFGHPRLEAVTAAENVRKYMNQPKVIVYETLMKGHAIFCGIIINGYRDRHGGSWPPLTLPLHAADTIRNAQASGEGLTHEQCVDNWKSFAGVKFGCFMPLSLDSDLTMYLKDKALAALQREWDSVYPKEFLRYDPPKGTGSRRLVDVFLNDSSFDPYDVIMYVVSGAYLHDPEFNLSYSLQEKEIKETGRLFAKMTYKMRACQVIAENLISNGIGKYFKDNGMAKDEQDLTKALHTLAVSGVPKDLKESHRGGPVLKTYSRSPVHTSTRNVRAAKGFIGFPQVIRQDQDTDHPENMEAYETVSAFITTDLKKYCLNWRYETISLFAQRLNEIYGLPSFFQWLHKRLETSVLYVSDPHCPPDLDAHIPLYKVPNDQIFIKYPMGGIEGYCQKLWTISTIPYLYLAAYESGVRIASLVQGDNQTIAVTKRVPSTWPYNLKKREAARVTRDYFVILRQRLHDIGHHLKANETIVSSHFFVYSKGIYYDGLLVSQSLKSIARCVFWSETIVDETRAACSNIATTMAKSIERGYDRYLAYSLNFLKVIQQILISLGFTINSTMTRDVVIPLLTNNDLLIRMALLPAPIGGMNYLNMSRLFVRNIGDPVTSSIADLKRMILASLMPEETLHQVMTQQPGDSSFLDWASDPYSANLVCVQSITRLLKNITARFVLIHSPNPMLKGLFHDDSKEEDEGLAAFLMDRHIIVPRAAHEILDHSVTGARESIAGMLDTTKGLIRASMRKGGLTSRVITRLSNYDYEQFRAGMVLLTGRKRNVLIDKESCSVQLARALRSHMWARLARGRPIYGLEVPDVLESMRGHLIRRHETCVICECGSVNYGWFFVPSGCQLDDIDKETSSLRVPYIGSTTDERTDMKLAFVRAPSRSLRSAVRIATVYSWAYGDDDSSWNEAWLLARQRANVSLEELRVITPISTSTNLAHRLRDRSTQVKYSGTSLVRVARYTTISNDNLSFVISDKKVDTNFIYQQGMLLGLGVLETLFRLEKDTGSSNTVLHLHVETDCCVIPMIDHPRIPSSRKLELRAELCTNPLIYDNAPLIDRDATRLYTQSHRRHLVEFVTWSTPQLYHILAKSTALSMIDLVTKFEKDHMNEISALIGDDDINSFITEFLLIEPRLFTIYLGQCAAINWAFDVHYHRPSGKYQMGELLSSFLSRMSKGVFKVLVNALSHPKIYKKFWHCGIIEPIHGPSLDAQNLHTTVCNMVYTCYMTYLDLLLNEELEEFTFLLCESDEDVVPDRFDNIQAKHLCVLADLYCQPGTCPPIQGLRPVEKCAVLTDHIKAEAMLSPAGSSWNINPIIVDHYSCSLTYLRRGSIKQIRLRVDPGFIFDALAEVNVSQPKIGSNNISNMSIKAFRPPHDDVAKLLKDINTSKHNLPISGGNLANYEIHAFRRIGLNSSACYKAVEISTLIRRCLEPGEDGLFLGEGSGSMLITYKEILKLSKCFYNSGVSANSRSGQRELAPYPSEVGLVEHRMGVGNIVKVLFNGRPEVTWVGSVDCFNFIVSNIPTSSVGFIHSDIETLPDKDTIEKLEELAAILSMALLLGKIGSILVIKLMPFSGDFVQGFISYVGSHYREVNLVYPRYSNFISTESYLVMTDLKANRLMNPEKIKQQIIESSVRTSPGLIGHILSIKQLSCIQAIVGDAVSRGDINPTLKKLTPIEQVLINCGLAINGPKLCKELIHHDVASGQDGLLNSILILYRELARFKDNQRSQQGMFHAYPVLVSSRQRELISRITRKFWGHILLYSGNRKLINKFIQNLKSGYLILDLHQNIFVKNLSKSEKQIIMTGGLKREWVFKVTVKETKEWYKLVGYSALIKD

In the case of `Cn1nc(C(F)(F)F)cc1C(=O)Nc1ccc(S(=O)(=O)N2CCCC[C@H]2CCN2CCOCC2)cc1` [ERDRP-0519, S(=O)(=O)(N1[C@H](CCN2CCOCC2)CCCC1)c1ccc(NC(=O)c2n(C)nc(C(F)(F)F)c2)cc1], the remaining activity at 0.005 µM (MeV L) is reported as 97%, the BLI sensorgram signal (MeV L1708; 0.027 µM, 0 s after start) is reported as 0.003933 and the BLI sensorgram signal (MeV L1708; 0.027 µM, 0.2 s after start) is reported as 0.003451. For the same molecule, the BLI sensorgram signal (MeV L1708; 0.027 µM, 0.4 s after start) was 0.003441, the BLI sensorgram signal (MeV L1708; 0.027 µM, 0.6 s after start) was 0.002991 and the BLI sensorgram signal (MeV L1708; 0.08 µM, 0 s after start) was 0.004633. It also gave a BLI sensorgram signal (MeV L1708; 0.08 µM, 0.2 s after start) of 0.004988, a BLI sensorgram signal (MeV L1708; 0.08 µM, 0.4 s after start) of 0.005321 and a BLI sensorgram signal (MeV L1708; 0.08 µM, 0.6 s after start) of 0.005054. It also gave a BLI sensorgram signal (MeV L1708; 0.74 µM, 0 s after start) of 0.0125, a BLI sensorgram signal (MeV L1708; 0.74 µM, 0.2 s after start) of 0.01183 and a BLI sensorgram signal (MeV L1708; 0.74 µM, 0.4 s after start) of 0.01188. It also gave a BLI sensorgram signal (MeV L1708; 0.74 µM, 0.6 s after start) of 0.0114, a BLI sensorgram signal (MeV L1708; 2.22 µM, 0 s after start) of 0.01275 and a BLI sensorgram signal (MeV L1708; 2.22 µM, 0.2 s after start) of 0.01261. For the same molecule, the BLI sensorgram signal (MeV L1708; 2.22 µM, 0.4 s after start) was 0.01211, the BLI sensorgram signal (MeV L1708; 2.22 µM, 0.6 s after start) was 0.01142 and the BLI sensorgram signal (MeV L1708; 6.67 µM, 0 s after start) was 0.009323. The BLI sensorgram signal (MeV L1708; 6.67 µM, 0.2 s after start) was 0.01006, the BLI sensorgram signal (MeV L1708; 6.67 µM, 0.4 s after start) was 0.01027 and the BLI sensorgram signal (MeV L1708; 6.67 µM, 0.6 s after start) was 0.01076. For the same molecule, the “S5 E BLI response versus compound conc.” value (MeV L1708; compound conc. 0.1 uM) was 0.01921, the “S5 F BLI response versus compound conc.” value (MeV L1708; compound conc. 0.1 uM) was 0.02408 and the “S5 E BLI response versus compound conc.” value (MeV L1708; compound conc. 0.25 uM) was 0.02429. For the same molecule, the “S5 F BLI response versus compound conc.” value (MeV L1708; compound conc. 0.25 uM) was 0.0326, the “S5 E BLI response versus compound conc.” value (MeV L1708; compound conc. 1 uM) was 0.03022 and the “S5 F BLI response versus compound conc.” value (MeV L1708; compound conc. 1 uM) was 0.03823. The “S5 E BLI response versus compound conc.” value (MeV L1708; compound conc. 5 uM) was 0.0316, the “S5 F BLI response versus compound conc.” value (MeV L1708; compound conc. 5 uM) was 0.04742 and the “S5 B BLI sensorgram response” value (MeV L1708; 100 nM, time 0 s) was -0.001906. For the same molecule, the “S5 C BLI sensorgram response” value (MeV L1708; 100 nM, time 0 s) was 0.005581, the “S5 B BLI sensorgram response” value (MeV L1708; 100 nM, time 0.2 s) was -0.001896 and the “S5 C BLI sensorgram response” value (MeV L1708; 100 nM, time 0.2 s) was 0.006504. The “S5 B BLI sensorgram response” value (MeV L1708; 100 nM, time 0.4 s) was -0.001894, the “S5 C BLI sensorgram response” value (MeV L1708; 100 nM, time 0.4 s) was 0.007379 and the “S5 B BLI sensorgram response” value (MeV L1708; 100 nM, time 0.6 s) was -0.001966. The “S5 C BLI sensorgram response” value (MeV L1708; 100 nM, time 0.6 s) was 0.008161, the “S5 B BLI sensorgram response” value (MeV L1708; 250 nM, time 0 s) was -0.005003 and the “S5 C BLI sensorgram response” value (MeV L1708; 250 nM, time 0 s) was -0.0006808. For the same molecule, the “S5 B BLI sensorgram response” value (MeV L1708; 250 nM, time 0.2 s) was -0.005217, the “S5 C BLI sensorgram response” value (MeV L1708; 250 nM, time 0.2 s) was -0.0001528 and the “S5 B BLI sensorgram response” value (MeV L1708; 250 nM, time 0.4 s) was -0.005452. The “S5 C BLI sensorgram response” value (MeV L1708; 250 nM, time 0.4 s) was 0.0001322, the “S5 B BLI sensorgram response” value (MeV L1708; 250 nM, time 0.6 s) was -0.004917 and the “S5 C BLI sensorgram response” value (MeV L1708; 250 nM, time 0.6 s) was 0.0008364. The “S5 B BLI sensorgram response” value (MeV L1708; 1 µM, time 0 s) was -0.01251, the “S5 C BLI sensorgram response” value (MeV L1708; 1 µM, time 0 s) was -0.001989 and the “S5 B BLI sensorgram response” value (MeV L1708; 1 µM, time 0.2 s) was -0.01197. For the same molecule, the “S5 C BLI sensorgram response” value (MeV L1708; 1 µM, time 0.2 s) was -0.00137, the “S5 B BLI sensorgram response” value (MeV L1708; 1 µM, time 0.4 s) was -0.01055 and the “S5 C BLI sensorgram response” value (MeV L1708; 1 µM, time 0.4 s) was -0.0005476. The “S5 B BLI sensorgram response” value (MeV L1708; 1 µM, time 0.6 s) was -0.009819, the “S5 B BLI sensorgram response” value (MeV L1708; 5 µM, time 0 s) was -0.006751 and the “S5 B BLI sensorgram response” value (MeV L1708; 5 µM, time 0.2 s) was -0.006914. The “S5 C BLI sensorgram response” value (MeV L1708; 5 µM, time 0.2 s) was 0.003468, the “S5 B BLI sensorgram response” value (MeV L1708; 5 µM, time 0.4 s) was -0.007277 and the “S5 C BLI sensorgram response” value (MeV L1708; 5 µM, time 0.4 s) was 0.003613. The “S5 B BLI sensorgram response” value (MeV L1708; 5 µM, time 0.6 s) was -0.007135, the “S5 C BLI sensorgram response” value (MeV L1708; 5 µM, time 0.6 s) was 0.003495 and the “S5 B BLI sensorgram response” value (MeV L1708; 10 µM, time 0 s) was -0.00589. For the same molecule, the “S5 C BLI sensorgram response” value (MeV L1708; 10 µM, time 0 s) was -0.0007761.
